According to US20130236610A1, “COMPOSITIONS AND METHODS FOR INHIBITING POTATO PATHOGENS” (UNIVERSITY OF IDAHO, priority 2010, published 2013):

Experiments:
Type in all cases: cell-based
[1] = tested on: Erwinia carotovora; assay: Volatile exposure of pathogen cultures on PDA in sealed mason jars, radial growth (Example 1); conditions: pure volatile, 7 days at 23° C
[2] = tested on: Colletotrichum coccodes; assay: as above; conditions: pure volatile, 7 days at 23° C
Procedure: (§1) In this study, acetaldehyde and 2E-hexenal were chosen as prototype volatiles in order to investigate the use of plant volatiles for the control of potato blemish pathogens in fresh-pack potato packaging. The two main potato blemish disease pathogens, Colletotrichum coccodes (black dot) and Helminthosporium solani (silver scurf) were used in the study. Cultures of the two pathogens, grown on PDA, were exposed to the pure volatiles in sealed mason jars for 7 days at 23° C. Radial fungal growth and the concentration of the volatile were measured daily and the concentration required to inhibit fungal growth was determined. […] 2E-hexenal could be used to control these and other pathogens and extend the storability and shelf-life of potatoes.

[3] = tested on: Helminthosporium solani; assay: as above; conditions: pure volatile, 7 days at 23° C
Procedure: as §1

[4] = tested on: Colletotrichum coccodes; assay: Pure volatile in 1L jars above plates containing the pathogens, colony diameter (Example 2); conditions: 2.5 μL/L volatile, 1L jar, 23 degree C
Procedure: (§2) […] were chosen as prototype volatiles to investigate the use of plant volatiles for the control of potato blemish pathogens. Three main potato blemish pathogens were used in the study: Erwinia carotovora, Colletotrichum coccodes and Helminthosporium solani.
(§3) 1L jars were used. Pure volatile (2.5-10 μt/L) was inserted into the jars onto the side of the jar above 6cm plates containing the pathogens. Controls and treatments were incubated at 23 degree C. until the control filled the plate. Diameter of the colony (mm) from control and treatments were evaluated daily using calipers.

[5] = tested on: Erwinia carotovora; assay: as above; conditions: 2.5 μL/L volatile, 1L jar, 23 degree C
Procedure: as §2, §3

[6] = tested on: Helminthosporium solani; assay: as above; conditions: 2.5 μL/L volatile, 1L jar, 23 degree C
Procedure: as §2, §3

Measured: inhibition of pathogen growth

CCC/C=C/C=O [2E-hexenal]
nearly complete inhibition: [1] | [2] | [3]

CCC/C=C/C=O [2E-Hexanal]
nearly complete inhibition: [4] | [5] | [6]
